# Experiments:
# [1] = cited from earlier work
# [2] = Outcome variables of patients on each psychotropic drug broken down by demographic factors (Covariates tables); assay type: in vivo, human
# Source text: Various SNPs associated with, for example, the observation of various parameters of metabolic syndromes in patients on psychotropic drugs were screened. The endpoints analyzed were the blood levels of LDL, HDL, and glucose; blood pressure; body mass index; waist circumference; and metabolic syndromes index. The physiogenomic model was developed using the following procedure: 1) Establish a covariate model using only the demographic and clinical variables, 2) Screen for associated genetic markers by testing each SNP against the unexplained residual of the covariate model, and 3) Establish a revised model incorporating the significant associations from the SNP screen.
compound,measurement,setting,value
Cc1cc2c(s1)Nc1ccccc1N=C2N1CCN(C)CC1 [olanzapine],"treated patients with induced weight gain, diabetes and other metabolic derangements",[1],50%
same,BM (body mass),[2]; Age 20-30,87.06
same,Glucose (blood glucose level),[2]; Age 20-30,88.65
same,HDL (HDL cholesterol level),[2]; Age 20-30,48.55
same,LDL (LDL cholesterol level),[2]; Age 20-30,104.10
same,Log (TG) (triglyceride level),[2]; Age 20-30,5.086
same,TC (total cholesterol level),[2]; Age 20-30,189.00
same,Waist (waist circumference),[2]; Age 20-30,99.18
same,dBP (diastolic blood pressure),[2]; Age 20-30,75.15
same,sBP (systolic blood pressure),[2]; Age 20-30,118.20
same,BM (body mass),[2]; Age 30-40,83.17
same,Glucose (blood glucose level),[2]; Age 30-40,92.29
same,HDL (HDL cholesterol level),[2]; Age 30-40,47.68
same,LDL (LDL cholesterol level),[2]; Age 30-40,103.73
same,Log (TG) (triglyceride level),[2]; Age 30-40,5.168
same,TC (total cholesterol level),[2]; Age 30-40,189.82
same,Waist (waist circumference),[2]; Age 30-40,97.82
same,dBP (diastolic blood pressure),[2]; Age 30-40,74.14
same,sBP (systolic blood pressure),[2]; Age 30-40,117.32
same,BM (body mass),[2]; Age 40-50,79.34
same,Glucose (blood glucose level),[2]; Age 40-50,92.47
same,HDL (HDL cholesterol level),[2]; Age 40-50,52.40
same,LDL (LDL cholesterol level),[2]; Age 40-50,107.00
same,Log (TG) (triglyceride level),[2]; Age 40-50,4.968
same,TC (total cholesterol level),[2]; Age 40-50,202.00
same,Waist (waist circumference),[2]; Age 40-50,98.32
same,dBP (diastolic blood pressure),[2]; Age 40-50,78.10
same,sBP (systolic blood pressure),[2]; Age 40-50,119.10
same,BM (body mass),[2]; Age 50-60,95.73
same,Glucose (blood glucose level),[2]; Age 50-60,86.67
same,HDL (HDL cholesterol level),[2]; Age 50-60,49.67
same,LDL (LDL cholesterol level),[2]; Age 50-60,104.00
same,Log (TG) (triglyceride level),[2]; Age 50-60,5.373
same,TC (total cholesterol level),[2]; Age 50-60,204.67
same,Waist (waist circumference),[2]; Age 50-60,105.80
same,dBP (diastolic blood pressure),[2]; Age 50-60,87.00
same,sBP (systolic blood pressure),[2]; Age 50-60,136.33
same,BM (body mass),[2]; Age 70-80,44.40
same,Glucose (blood glucose level),[2]; Age 70-80,92.00
same,HDL (HDL cholesterol level),[2]; Age 70-80,68.00
same,LDL (LDL cholesterol level),[2]; Age 70-80,94.00
same,Log (TG) (triglyceride level),[2]; Age 70-80,4.159
same,TC (total cholesterol level),[2]; Age 70-80,174.0
same,Waist (waist circumference),[2]; Age 70-80,65.00
same,dBP (diastolic blood pressure),[2]; Age 70-80,66.00
same,sBP (systolic blood pressure),[2]; Age 70-80,100.0
same,BM (body mass),[2]; Age <20,65.00
same,Glucose (blood glucose level),[2]; Age <20,109.00
same,HDL (HDL cholesterol level),[2]; Age <20,28.00
same,LDL (LDL cholesterol level),[2]; Age <20,68.00
same,Log (TG) (triglyceride level),[2]; Age <20,4.787
same,TC (total cholesterol level),[2]; Age <20,120.00
same,Waist (waist circumference),[2]; Age <20,96.00
same,dBP (diastolic blood pressure),[2]; Age <20,77.00
same,sBP (systolic blood pressure),[2]; Age <20,109.00
same,BM (body mass),[2]; All patients on the drug,82.90
same,Glucose (blood glucose level),[2]; All patients on the drug,91.22
same,HDL (HDL cholesterol level),[2]; All patients on the drug,49.45
same,LDL (LDL cholesterol level),[2]; All patients on the drug,104.11
same,Log (TG) (triglyceride level),[2]; All patients on the drug,5.072
same,TC (total cholesterol level),[2]; All patients on the drug,192.60
same,Waist (waist circumference),[2]; All patients on the drug,98.21
same,dBP (diastolic blood pressure),[2]; All patients on the drug,76.12
same,sBP (systolic blood pressure),[2]; All patients on the drug,118.58
same,BM (body mass),[2]; Gender female,82.39
same,Glucose (blood glucose level),[2]; Gender female,97.53
same,HDL (HDL cholesterol level),[2]; Gender female,51.89
same,LDL (LDL cholesterol level),[2]; Gender female,118.94
same,Log (TG) (triglyceride level),[2]; Gender female,4.985
same,TC (total cholesterol level),[2]; Gender female,212.16
same,Waist (waist circumference),[2]; Gender female,100.74
same,dBP (diastolic blood pressure),[2]; Gender female,75.84
same,sBP (systolic blood pressure),[2]; Gender female,116.79
same,BM (body mass),[2]; Gender male,83.10
same,Glucose (blood glucose level),[2]; Gender male,88.98
same,HDL (HDL cholesterol level),[2]; Gender male,48.48
same,LDL (LDL cholesterol level),[2]; Gender male,98.54
same,Log (TG) (triglyceride level),[2]; Gender male,5.107
same,TC (total cholesterol level),[2]; Gender male,184.85
same,Waist (waist circumference),[2]; Gender male,97.21
same,dBP (diastolic blood pressure),[2]; Gender male,76.23
same,sBP (systolic blood pressure),[2]; Gender male,119.29
same,BM (body mass),[2]; Heritage AA,87.38
same,Glucose (blood glucose level),[2]; Heritage AA,98.31
same,HDL (HDL cholesterol level),[2]; Heritage AA,54.00
same,LDL (LDL cholesterol level),[2]; Heritage AA,109.14
same,Log (TG) (triglyceride level),[2]; Heritage AA,5.060
same,TC (total cholesterol level),[2]; Heritage AA,197.57
same,Waist (waist circumference),[2]; Heritage AA,96.82
same,dBP (diastolic blood pressure),[2]; Heritage AA,77.00
same,sBP (systolic blood pressure),[2]; Heritage AA,119.79
same,BM (body mass),[2]; Heritage Cauc.,81.98
same,Glucose (blood glucose level),[2]; Heritage Cauc.,89.24
same,HDL (HDL cholesterol level),[2]; Heritage Cauc.,48.16
same,LDL (LDL cholesterol level),[2]; Heritage Cauc.,103.53
same,Log (TG) (triglyceride level),[2]; Heritage Cauc.,5.115
same,TC (total cholesterol level),[2]; Heritage Cauc.,193.30
same,Waist (waist circumference),[2]; Heritage Cauc.,98.17
same,dBP (diastolic blood pressure),[2]; Heritage Cauc.,75.48
same,sBP (systolic blood pressure),[2]; Heritage Cauc.,118.38
same,BM (body mass),[2]; Heritage Hisp.,110.91
same,Glucose (blood glucose level),[2]; Heritage Hisp.,91.00
same,HDL (HDL cholesterol level),[2]; Heritage Hisp.,47.00
same,LDL (LDL cholesterol level),[2]; Heritage Hisp.,147.00
same,Log (TG) (triglyceride level),[2]; Heritage Hisp.,4.700
same,TC (total cholesterol level),[2]; Heritage Hisp.,216.00
same,Waist (waist circumference),[2]; Heritage Hisp.,144.00
same,dBP (diastolic blood pressure),[2]; Heritage Hisp.,91.00
same,sBP (systolic blood pressure),[2]; Heritage Hisp.,132.00
same,BM (body mass),[2]; Heritage Other,60.45
same,Glucose (blood glucose level),[2]; Heritage Other,93.50
same,HDL (HDL cholesterol level),[2]; Heritage Other,51.00
same,LDL (LDL cholesterol level),[2]; Heritage Other,61.50
same,Log (TG) (triglyceride level),[2]; Heritage Other,4.263
same,TC (total cholesterol level),[2]; Heritage Other,128.50
same,Waist (waist circumference),[2]; Heritage Other,86.00
same,dBP (diastolic blood pressure),[2]; Heritage Other,78.50
same,sBP (systolic blood pressure),[2]; Heritage Other,108.50
same,BM,[2]; patients on the named drug,82.90
same,BMI,[2]; patients on the named drug,27.12
same,Glucose,[2]; patients on the named drug,91.22
same,HDL,[2]; patients on the named drug,49.45
same,LDL,[2]; patients on the named drug,104.11
same,Log (TG),[2]; patients on the named drug,5.072
same,MSI,[2]; patients on the named drug,−0.1290
same,TC,[2]; patients on the named drug,192.60
same,Waist,[2]; patients on the named drug,98.21
same,dBP,[2]; patients on the named drug,76.12
same,sBP,[2]; patients on the named drug,118.58
